Data reported in US20050019420A1, “Fungicide composition comprising pyrimethanil and at least a phosphorous acid derivative and use thereof for fighting against plant diseases” (priority 2001, published 2005).

Test system: Venturia inaequalis
Experiment: Apple tree scab field trial, preventive spray programme
Type: in vivo
Settings: for % of leaves attacked: apple tree Rome Beauty
Excerpt: Apple Tree—Venturia inaequalis
The following fungicides are compared: • Pyrimethanil at the dose of 20 g/hl and mixtures. • fosetyl-Al+pyrimethanil at the doses of 50+20 and 100+20 g/hl applied in a plant protection mixture volume of 1 200 l/ha.
The products are applied to an apple tree (Rome Beauty variety) which is sensitive to Venturia inaequalis.
The various products to be studied are sprayed every 7, 10 or 13 days (9, 7 and 6 applications in total respectively) in a program of treatment starting on 28 Mar. 2001.
Scores are awarded for the disease (% foliar surface area destroyed) on 14 May and 11 Jun. 2001. The results are expressed as % of leaves attacked.

Structure (SMILES)	% of leaves attacked (dose (20), sprayed every 7 days (9 applications), scored 11 June 2001) [%]	% of leaves attacked (dose (20), sprayed every 7 days (9 applications), scored 14 May 2001) [%]	% of leaves attacked (dose (200), sprayed every 10 days (7 applications), scored 11 June 2001) [%]	% of leaves attacked (dose (200), sprayed every 10 days (7 applications), scored 14 May 2001) [%]	% of leaves attacked (dose (200), sprayed every 13 days (6 applications), scored 11 June 2001) [%]	% of leaves attacked (dose (200), sprayed every 13 days (6 applications), scored 14 May 2001) [%]	persistence of the action of pyrimethanil (addition of fosetyl-Al to pyrimethanil, applications every 10 to 13 days compared with weekly applications)
Cc1cc(C)nc(Nc2ccccc2)n1 [Pyrimethanil, pyrimethanil]	27.7	14.7	33	16.2	32	16.3	
CCO[PH](=O)O [fosetyl-AI, monoethyl ester-phosphonate-aluminum]							improve the persistence of the action of pyrimethanil
